Where two headings read alike, the source gives them in different places.
Target: T1, IRAK4 (Homo sapiens, UniProt Q9NWZ3)
T1 construct: endogenous in cells; host or cells: Karpas299
T1 sequence (Q9NWZ3 1-460): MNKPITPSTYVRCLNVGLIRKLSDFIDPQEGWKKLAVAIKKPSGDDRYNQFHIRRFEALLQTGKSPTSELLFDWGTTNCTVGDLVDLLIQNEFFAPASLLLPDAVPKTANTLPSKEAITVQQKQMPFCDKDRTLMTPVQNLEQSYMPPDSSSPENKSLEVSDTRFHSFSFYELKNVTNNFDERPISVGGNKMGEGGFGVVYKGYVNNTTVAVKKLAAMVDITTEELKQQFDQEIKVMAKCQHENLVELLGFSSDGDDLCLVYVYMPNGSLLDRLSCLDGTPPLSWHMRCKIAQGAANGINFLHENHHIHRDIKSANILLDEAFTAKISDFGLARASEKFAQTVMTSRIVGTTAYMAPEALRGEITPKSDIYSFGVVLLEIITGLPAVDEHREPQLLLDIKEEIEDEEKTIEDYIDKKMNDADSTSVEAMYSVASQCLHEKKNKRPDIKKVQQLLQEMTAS
Assay: IRAK4 Degradation Assay (Karpas299, HTRF/TR-FRET)
Assay type: cell-based
How it was run: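 Compound potency as DC50 (IC50) came from four-parameter fits of percent IRAK4 degradation. IRAK4 was measured by HTRF (665/620 nm) in lysates of Karpas299 cells seeded at 0.2 million per well. Cells had been treated with compound dilutions for 5 or 24 h.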

[1] = Karpas-299 cells, 24 h treatment, maximum percentage of degradation, read-out: IRAK4 in Karpas-299 (24 h) Dmax (%)
[2] = Karpas-299 cells, 24 h treatment, read-out: IRAK4 in Karpas-299 (24 h) DC50
[3] = Karpas-299 cells, 5 h treatment, maximum percentage of degradation, read-out: IRAK4 in Karpas-299 (5 h) Dmax (%)
[4] = Karpas-299 cells, 5 h treatment, read-out: IRAK4 in Karpas-299 (5 h) DC50

CC(C)(O)c1cc2nn([C@H]3CC[C@H](N4CCN([C@H]5CCN(c6ccc(N7CCC(=O)NC7=O)cc6)C5)CC4)CC3)cc2cc1NC(=O)c1ccc2cc(C#N)cnn12 [Example 295, 3-cyano-N-(2-((1S,4r)-4-(4-((S)-1-(4-(2,4-dioxotetrahydropyrimidin-1(2H)-yl)phenyl)pyrrolidin-3-yl)piperazin-1-yl)cyclohexyl)-6-(2-hydroxypropan-2-yl)-2H-indazol-5-yl)pyrrolo[1,2-b]pyridazine-7-carboxamide]
Dmax [1]: 87%
DC50 [2]: 16 nM

CC(C)(O)c1cc2nn(C3CCN(C4CCN(C(=O)C5CN(c6cc(F)c([C@H]7CCC(=O)NC7=O)c(F)c6)C5)CC4)CC3)cc2cc1NC(=O)c1cccn(C2CC2)c1=O [Example 117, (R)-1-cyclopropyl-N-(2-(1′-(1-(4-(2,6-dioxopiperidin-3-yl)-3,5-difluorophenyl)azetidine-3-carbonyl)-[1,4′-bipiperidin]-4-yl)-6-(2-hydroxypropan-2-yl)-2H-indazol-5-yl)-2-oxo-1,2-dihydropyridine-3-carboxamide]
Dmax [1]: 78%
DC50 [2]: 4.2 nM

CC(C)(O)c1cc2nn(C34CCC(N5CCN(C(=O)C6CN(c7cc(F)c([C@H]8CCC(=O)NC8=O)c(F)c7)C6)CC5)(CC3)CC4)cc2cc1NC(=O)c1ccc2cc(C#N)cnn12 [Example 149, (R)-3-cyano-N-(2-(4-(4-(1-(4-(2,6-dioxopiperidin-3-yl)-3,5-difluorophenyl)azetidine-3-carbonyl)piperazin-1-yl)bicyclo[2.2.2]octan-1-yl)-6-(2-hydroxypropan-2-yl)-2H-indazol-5-yl)pyrrolo[1,2-b]pyridazine-7-carboxamide]
Dmax [1]: 97%
DC50 [2]: 0.3 nM

[2H]C([2H])([2H])Oc1cc2nn([C@H]3CC[C@H](N4CCN(C(=O)[C@@H]5CCN(c6cc(F)c(N7CCC(=O)NC7=O)c(F)c6)C5)CC4)CC3)cc2cc1NC(=O)c1cccc(C(F)(F)F)n1 [Example 174, N-(2-((1R,4r)-4-(4-((R)-1-(4-(2,4-dioxotetrahydropyrimidin-1(2H)-yl)-3,5-difluorophenyl)pyrrolidine-3-carbonyl)piperazin-1-yl)cyclohexyl)-6-(methoxy-d3)-2H-indazol-5-yl)-6-(trifluoromethyl)picolinamide]
Dmax [1]: 97%
DC50 [2]: 7.7 nM

CC(C)(O)c1cc2nn(C3CCN(C4CCN(C(=O)C5CN(c6cc(F)c([C@H]7CCC(=O)NC7=O)c(F)c6)C5)CC4)CC3)cc2cc1NC(=O)c1cccc(C(F)(F)F)n1 [Example 160, (R)—N-(2-(1′-(1-(4-(2,6-dioxopiperidin-3-yl)-3,5-difluorophenyl)azetidine-3-carbonyl)-[1,4′-bipiperidin]-4-yl)-6-(2-hydroxypropan-2-yl)-2H-indazol-5-yl)-6-(trifluoromethyl)picolinamide]
Dmax [3]: 90%
DC50 [4]: 4 nM
Dmax [1]: 99%
DC50 [2]: 0.4 nM

CC(C)(O)c1cc2nn([C@H]3CC[C@H](N4CCN(C5CCN(c6cc(F)c([C@H]7CCC(=O)NC7=O)c(F)c6)CC5)CC4)CC3)cc2cc1NC(=O)c1coc2cccnc12 [Example 405, N-(2-((1r,4r)-4-(4-(1-(4-((R)-2,6-dioxopiperidin-3-yl)-3,5-difluorophenyl)piperidin-4-yl)piperazin-1-yl)cyclohexyl)-6-(2-hydroxypropan-2-yl)-2H-indazol-5-yl)furo[3,2-b]pyridine-3-carboxamide]
Dmax [1]: 96%
DC50 [2]: 0.9 nM

O=C1CC[C@H](c2c(F)cc(N3CC[C@@H](C(=O)N4CCN([C@H]5CC[C@H](n6cc(NC(=O)c7coc(-c8ccnc(NCC9CC9)c8)n7)c(C(F)F)n6)CC5)C(=O)C4)C3)cc2F)C(=O)N1 [Example 101, 2-(2-((cyclopropylmethyl)amino)pyridin-4-yl)-N-(3-(difluoromethyl)-1-((1R,4r)-4-(4-((R)-1-(4-((R)-2,6-dioxopiperidin-3-yl)-3,5-difluorophenyl)pyrrolidine-3-carbonyl)-2-oxopiperazin-1-yl)cyclohexyl)-1H-pyrazol-4-yl)oxazole-4-carboxamide]
Dmax [1]: 97%
DC50 [2]: 1.2 nM

NC(=O)c1nn(-c2ccc(N3CCN(C(=O)[C@@H]4CCN(c5cc(F)c([C@H]6CCC(=O)NC6=O)c(F)c5)C4)CC3)nc2)cc1NC(=O)c1coc(-c2ccnc(NCC(F)(F)F)c2)n1 [Example 166, N-(3-carbamoyl-1-(6-(4-((R)-1-(4-((R)-2,6-dioxopiperidin-3-yl)-3,5-difluorophenyl)pyrrolidine-3-carbonyl)piperazin-1-yl)pyridin-3-yl)-1H-pyrazol-4-yl)-2-(2-((2,2,2-trifluoroethyl)amino)pyridin-4-yl)oxazole-4-carboxamide]
Dmax [1]: 96%
DC50 [2]: 2.6 nM

CC(C)(O)c1cc2nn([C@H]3CC[C@H](N4CCN(C(=O)[C@@H]5CCN(c6cc(F)c([C@H]7CCC(=O)NC7=O)c(F)c6)C5)CC4)CC3)cc2cc1NC(=O)c1ccc2c(n1)C(F)(F)CCC2 [Example 172, N-(2-((1R,4r)-4-(4-((R)-1-(4-((R)-2,6-dioxopiperidin-3-yl)-3,5-difluorophenyl)pyrrolidine-3-carbonyl)piperazin-1-yl)cyclohexyl)-6-(2-hydroxypropan-2-yl)-2H-indazol-5-yl)-8,8-difluoro-5,6,7,8-tetrahydroquinoline-2-carboxamide]
Dmax [1]: 94%
DC50 [2]: 1.6 nM

COc1cc2nn(C3CCN(C4CCN(C(=O)C5CN(c6cc(F)c([C@H]7CCC(=O)NC7=O)c(F)c6)C5)CC4)CC3)cc2cc1NC(=O)c1cccc(C(F)(F)F)n1 [Example 45, (R)—N-(2-(1′-(1-(4-(2,6-dioxopiperidin-3-yl)-3,5-difluorophenyl)azetidine-3-carbonyl)-[1,4′-bipiperidin]-4-yl)-6-methoxy-2H-indazol-5-yl)-6-(trifluoromethyl)picolinamide]
Dmax [3]: 88%
DC50 [4]: 16 nM
Dmax [1]: 98%
DC50 [2]: 6.3 nM

CC(C)(O)c1cc2nc(C3CCN(C4CCN(C(=O)[C@H]5CCN(c6ccc(N7CCC(=O)NC7=O)cc6)C5)CC4)CC3)cn2cc1NC(=O)c1cccc(C(F)(F)F)n1 [Example 128, (S)—N-(2-(1′-(1-(4-(2,4-dioxotetrahydropyrimidin-1(2H)-yl)phenyl)pyrrolidine-3-carbonyl)-[1,4′-bipiperidin]-4-yl)-7-(2-hydroxypropan-2-yl)imidazo[1,2-a]pyridin-6-yl)-6-(trifluoromethyl)picolinamide]
Dmax [3]: 90%
DC50 [4]: 41 nM
Dmax [1]: 100%
DC50 [2]: 7.2 nM

NC(=O)c1nn([C@H]2CC[C@H](N3CCN(C4CC(c5ccc(N[C@H]6CCC(=O)NC6=O)cc5)C4)CC3)CC2)cc1NC(=O)c1coc(-c2ccnc(NCC(F)(F)F)c2)n1 (stereo partly drawn) [Example 10, N-(3-carbamoyl-1-((1r,4r)-4-(4-(3-(4-(((S)-2,6-dioxopiperidin-3-yl)amino)phenyl)cyclobutyl)piperazin-1-yl)cyclohexyl)-1H-pyrazol-4-yl)-2-(2-((2,2,2-trifluoroethyl)amino)pyridin-4-yl)oxazole-4-carboxamide]
Dmax [1]: 92%
DC50 [2]: 5.4 nM

N#Cc1cnn2c(C(=O)Nc3cc4cn([C@H]5CC[C@H](N6CCN(C(=O)C7CN(c8cc(F)c([C@H]9CCC(=O)NC9=O)c(F)c8)C7)CC6)CC5)nc4c4c3OC(F)(F)O4)ccc2c1 [Example 384, 3-cyano-N-(2-((1r,4r)-4-(4-(1-(4-((R)-2,6-dioxopiperidin-3-yl)-3,5-difluorophenyl)azetidine-3-carbonyl)piperazin-1-yl)cyclohexyl)-7,7-difluoro-2H-[1,3]dioxolo[4,5-g]indazol-5-yl)pyrrolo[1,2-b]pyridazine-7-carboxamide]
Dmax [1]: 97%
DC50 [2]: 2.2 nM

COc1cc2nn([C@H]3CC[C@H](CN4CCN(C(=O)[C@@H]5CCN(c6ccc(N7CCC(=O)NC7=O)cc6)C5)CC4)CC3)cc2cc1NC(=O)c1cccc(C(F)(F)F)n1 [Example 36, N-(2-((1R,4r)-4-((4-((R)-1-(4-(2,4-dioxotetrahydropyrimidin-1(2H)-yl)phenyl)pyrrolidine-3-carbonyl)piperazin-1-yl)methyl)cyclohexyl)-6-methoxy-2H-indazol-5-yl)-6-(trifluoromethyl)picolinamide]
DC50 (Degradation (Karpas-299), comparison table, Linker Type A, read-out: Compound (Linker Type A) DC50): 15 nM
Dmax (Degradation (Karpas-299), comparison table, Linker Type A, read-out: Compound (Linker Type A) Dmax (%)): 89%
Dmax [1]: 89%
DC50 [2]: 15 nM

N#Cc1cnn2c(C(=O)Nc3cc4cn([C@H]5CC[C@H](N6CCN(CCc7cc(F)c([C@H]8CCC(=O)NC8=O)c(F)c7)CC6)CC5)nc4c4c3OC(F)(F)O4)ccc2c1 [Example 386, 3-cyano-N-(2-((1R,4r)-4-(4-(4-((R)-2,6-dioxopiperidin-3-yl)-3,5-difluorophenethyl)piperazin-1-yl)cyclohexyl)-7,7-difluoro-2H-[1,3]dioxolo[4,5-g]indazol-5-yl)pyrrolo[1,2-b]pyridazine-7-carboxamide]
Dmax [1]: 94%
DC50 [2]: 3.2 nM

Source: patent US20250195513A1, “DEGRADATION OF IRAK4 BY CONJUGATION OF IRAK4 INHIBITORS WITH E3 LIGASE LIGAND AND METHODS OF USE” (BeiGene, Ltd., priority 2022, published 2025)
